Experiments:
MAP-rich tubulin = assay: Tubulin polymerization test with MAP-rich tubulin; type: biochemical, bovine; conditions: 0.3 μM compound, 20 min, fold enhancement over control
Method in brief: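 Bovine brain MAP-rich tubulin (1.3 mg/mL) in PEM buffer pH 6.9 with 1 mM GTP, compounds at 0.3 μM final (0.3% DMSO), 24° for 60 min. Turbidity read at 340 nm each minute, baseline-subtracted; mean A340 at 20 min divided by solvent control gives fold enhancement.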

HeLa cells = assay: Cell cycle analysis with HeLa cells; type: cell-based, human; conditions: 18 hr
Procedure: HeLa cells are harvested by trypsinization, washed, counted and distributed to wells of 12-well plates at 125,000 cells per well in 2 mL medium. Cells are cultured overnight. […] Cells are continued in culture for 18 hr after compound addition, then cells in each well are harvested (taking care to recover both adherent and non-adherent cells) and processed using the CycleTEST PLUS kit (Becton Dickinson Immunocytometry Systems, San Jose, Calif.). Flow cytometry is done with a FACSort instrument (Becton Dickinson).
This procedure measures the percentages of cells in a population that are in the G1, S, and G2/M phases of the cell cycle. It utilizes staining of cell nuclei with propidium iodide and analysis by flow cytometry.

## CN(C)CCCOc1cc(F)c(-c2c(Cl)nc3ncnn3c2NCC(F)(F)F)c(F)c1.Cl [Example 4a, 5-Chloro-6-{4-[3-(dimethylamino)propoxy]-2,6-difluorophenyl}-N-(2,2,2-trifluoroethyl)[1,2,4]triazolo[1,5-a]pyrimidin-7-amine Hydrogen chloride Salt]
MAP-rich tubulin
  A340 Compound/A340 Control: 8.1
HeLa cells; 20 nM
  Percent in Cell Cycle Phase >4N: 2%
  Percent in Cell Cycle Phase Apop: 6%
  Percent in Cell Cycle Phase G1: 60%
  Percent in Cell Cycle Phase G2/M: 15%
  Percent in Cell Cycle Phase S: 17%
HeLa cells; 30 nM
  Percent in Cell Cycle Phase >4N: 1%
  Percent in Cell Cycle Phase Apop: 44%
  Percent in Cell Cycle Phase G1: 29%
  Percent in Cell Cycle Phase G2/M: 15%
  Percent in Cell Cycle Phase S: 12%
HeLa cells; 40 nM
  Percent in Cell Cycle Phase >4N: 2%
  Percent in Cell Cycle Phase Apop: 65%
  Percent in Cell Cycle Phase G1: 8%
  Percent in Cell Cycle Phase G2/M: 17%
  Percent in Cell Cycle Phase S: 8%
HeLa cells; 50 nM
  Percent in Cell Cycle Phase >4N: 2%
  Percent in Cell Cycle Phase Apop: 54%
  Percent in Cell Cycle Phase G1: 6%
  Percent in Cell Cycle Phase G2/M: 29%
  Percent in Cell Cycle Phase S: 9%
HeLa cells; 60 nM
  Percent in Cell Cycle Phase >4N: 2%
  Percent in Cell Cycle Phase Apop: 64%
  Percent in Cell Cycle Phase G1: 13%
  Percent in Cell Cycle Phase G2/M: 15%
  Percent in Cell Cycle Phase S: 8%
HeLa cells; 70 nM
  Percent in Cell Cycle Phase >4N: 4%
  Percent in Cell Cycle Phase Apop: 25%
  Percent in Cell Cycle Phase G1: 3%
  Percent in Cell Cycle Phase G2/M: 60%
  Percent in Cell Cycle Phase S: 8%
HeLa cells; 80 nM
  Percent in Cell Cycle Phase >4N: 5%
  Percent in Cell Cycle Phase Apop: 20%
  Percent in Cell Cycle Phase G1: 5%
  Percent in Cell Cycle Phase G2/M: 63%
  Percent in Cell Cycle Phase S: 7%
HeLa cells; 90 nM
  Percent in Cell Cycle Phase >4N: 5%
  Percent in Cell Cycle Phase Apop: 22%
  Percent in Cell Cycle Phase G1: 5%
  Percent in Cell Cycle Phase G2/M: 59%
  Percent in Cell Cycle Phase S: 10%
HeLa cells; 100 nM
  Percent in Cell Cycle Phase >4N: 5%
  Percent in Cell Cycle Phase Apop: 23%
  Percent in Cell Cycle Phase G1: 7%
  Percent in Cell Cycle Phase G2/M: 57%
  Percent in Cell Cycle Phase S: 9%
HeLa cells; 110 nM
  Percent in Cell Cycle Phase >4N: 5%
  Percent in Cell Cycle Phase Apop: 23%
  Percent in Cell Cycle Phase G1: 6%
  Percent in Cell Cycle Phase G2/M: 56%
  Percent in Cell Cycle Phase S: 10%
HeLa cells; 120 nM
  Percent in Cell Cycle Phase >4N: 4%
  Percent in Cell Cycle Phase Apop: 27%
  Percent in Cell Cycle Phase G1: 7%
  Percent in Cell Cycle Phase G2/M: 53%
  Percent in Cell Cycle Phase S: 10%

## C[C@H](Nc1c(-c2c(F)cc(OCCCN(C)C)cc2F)c(Cl)nc2ncnn12)C(F)(F)F.Cl [Example 1a, 5-chloro-6-{4-[3-(dimethylamino)propoxy]-2,6-difluorophenyl}-N-[(1S)-2,2,2-trifluoro-1-methylethyl][1,2,4]triazolo[1,5-a]pyrimidin-7-amine hydrogen chloride Salt]
MAP-rich tubulin
  A340 Compound/A340 Control: 6.1
HeLa cells; 20 nM
  Percent in Cell Cycle Phase >4N: 2%
  Percent in Cell Cycle Phase Apop: 13%
  Percent in Cell Cycle Phase G1: 54%
  Percent in Cell Cycle Phase G2/M: 14%
  Percent in Cell Cycle Phase S: 18%
HeLa cells; 30 nM
  Percent in Cell Cycle Phase >4N: 1%
  Percent in Cell Cycle Phase Apop: 38%
  Percent in Cell Cycle Phase G1: 35%
  Percent in Cell Cycle Phase G2/M: 14%
  Percent in Cell Cycle Phase S: 12%
HeLa cells; 40 nM
  Percent in Cell Cycle Phase >4N: 1%
  Percent in Cell Cycle Phase Apop: 71%
  Percent in Cell Cycle Phase G1: 7%
  Percent in Cell Cycle Phase G2/M: 13%
  Percent in Cell Cycle Phase S: 8%
HeLa cells; 40 nM, listed as example 1a
  Percent in Cell Cycle Phase Apop: about 70%
  Percent in Cell Cycle Phase G2/M: no increase
HeLa cells; 50 nM
  Percent in Cell Cycle Phase >4N: 2%
  Percent in Cell Cycle Phase Apop: 63%
  Percent in Cell Cycle Phase G1: 6%
  Percent in Cell Cycle Phase G2/M: 20%
  Percent in Cell Cycle Phase S: 9%
HeLa cells; 60 nM
  Percent in Cell Cycle Phase >4N: 3%
  Percent in Cell Cycle Phase Apop: 52%
  Percent in Cell Cycle Phase G1: 5%
  Percent in Cell Cycle Phase G2/M: 32%
  Percent in Cell Cycle Phase S: 10%
HeLa cells; 70 nM
  Percent in Cell Cycle Phase >4N: 4%
  Percent in Cell Cycle Phase Apop: 26%
  Percent in Cell Cycle Phase G1: 3%
  Percent in Cell Cycle Phase G2/M: 57%
  Percent in Cell Cycle Phase S: 9%
HeLa cells; 80 nM
  Percent in Cell Cycle Phase >4N: 5%
  Percent in Cell Cycle Phase Apop: 24%
  Percent in Cell Cycle Phase G1: 4%
  Percent in Cell Cycle Phase G2/M: 58%
  Percent in Cell Cycle Phase S: 9%
HeLa cells; 90 nM
  Percent in Cell Cycle Phase >4N: 6%
  Percent in Cell Cycle Phase Apop: 22%
  Percent in Cell Cycle Phase G1: 5%
  Percent in Cell Cycle Phase G2/M: 58%
  Percent in Cell Cycle Phase S: 10%
HeLa cells; 100 nM
  Percent in Cell Cycle Phase >4N: 5%
  Percent in Cell Cycle Phase Apop: 24%
  Percent in Cell Cycle Phase G1: 4%
  Percent in Cell Cycle Phase G2/M: 58%
  Percent in Cell Cycle Phase S: 10%
HeLa cells; 110 nM
  Percent in Cell Cycle Phase >4N: 5%
  Percent in Cell Cycle Phase Apop: 24%
  Percent in Cell Cycle Phase G1: 6%
  Percent in Cell Cycle Phase G2/M: 53%
  Percent in Cell Cycle Phase S: 13%
HeLa cells; 120 nM
  Percent in Cell Cycle Phase >4N: 5%
  Percent in Cell Cycle Phase Apop: 28%
  Percent in Cell Cycle Phase G1: 6%
  Percent in Cell Cycle Phase G2/M: 48%
  Percent in Cell Cycle Phase S: 14%

Reference: patent publication US7507739B2, “6-[(substituted)phenyl]triazolopyrimidines as anticancer agents” (Wyeth, priority 2003, dated 2009)
